“Also recorded” adds a separate entry of the source.
How the values were obtained:
canine CMR1 (cCMR1) = assay: Cell-based calcium influx (FLIPR) assay on HEK293 cells stably transfected with cCMR1; conditions: for calcium-mediated fluorescence (calcium influx): added at 200 seconds, room temperature
Description: The following day, the cells were loaded with buffer and calcium dye (Molecular Devices, Sunnyvale, Calif.) in a final volume of 40 μl and incubated for 30 minutes at room temperature. The fluorescence intensity was measured by FLIPR before and after the addition of menthol or icilin, which were added to the cells at a concentration of 100 μM or 10 μM each, respectively.
HEK293 cells stably transfected with cCMR1 were seeded in a 384 will plate at a concentration of […] and incubated overnight at 37° C./5% CO2. The following day the cells were loaded with calcium dye and incubated for 30 minutes at room temperature. The calcium-mediated fluorescence intensity was measured by FLIPR before and after the compound was administered to the cells.

cCMR1 channel = assay: Whole-cell patch clamp recording of HEK293 cells stably transfected with cCMR1; assay type: cell-based, canine
Description: HEK293 cells stably transfected with canine cCMR1 were cultured in DMEM supplemented with 10% fetal bovine serum, 100 units/ml penicillin, 100 μg/ml streptomycin and 1 mg/ml G418. Cells were maintained at 37° C. and in 5% CO2. Unless otherwise indicated, the standard extracellular solution used for recording contained (in mM): NaCl, 132; EGTA, 1; KCl, 5.4; MgCl2, 0.8; HEPES, 10; glucose, 10; pH=7.4. In experiments where the extracellular solution contained Ca^2+, the extracellular solution used was one of the following (in mM), depending on the Ca^2+ concentration used: (1) NaCl, 132; CaCl2, 0.1 or 1.8; KCl, 5.4; MgCl2, 0.8; HEPES, 10; glucose, 10; pH=7.4; (2) NaCl, 116; CaCl2, 10; KCl, 5.4; MgCl2, 0.8; HEPES, 10; glucose, 10; pH=7.4. The intracellular solution used to fill recording pipettes contained (in mM): CsCl, 145; EGTA, 5; HEPES, 10; glucose, 5; pH=7.4. Recordings were performed using the conventional whole-cell patch clamp technique, 1-2 days after plating cells onto glass coverslips at densities appropriate for single cell recording. Currents were amplified by a patch clamp amplifier and filtered at 2 kHz (Axopatch 200B, Axon Instruments). […] Recordings involving agonist stimulations were performed at 22° C. In experiments where temperatures were varied, temperature ramps were generated by heating/cooling the perfusate in a dual in-line heater/cooler (Model SC-20, Warner Instruments, Hamden, Conn.) controlled by a bipolar temperature controller (Model CL-100, Warner Instruments). The temperature in the vicinity of the recorded cell was measured with a custom-made miniature thermo-microprobe connected to a monitoring thermometer (Model TH-8, Physitemp, Clifton, N.J.), and sampled using Digidata 1322A and pClamp 9.0 (Axon Instruments, Union City, Calif.), as were the currents concurrently measured in the whole-cell patch clamp mode. Two voltage protocols were used in these studies. The first involved a 600 ms voltage ramp from −100 mV to +60 mV at a sampling rate of 10 kHz. This voltage pulse was repeated once every 5 seconds. The cell was held at −100 mV between voltage pulses. In the second protocol, the cell was held at −80 mV and the current was continuously sampled (at 100 Hz) at this holding potential.

**Q.** For `O=C1NC(c2cccc([N+](=O)[O-])c2)=CCN1c1ccccc1O` [icilin], which “calcium-mediated fluorescence (activation of cCMR1)” value (canine CMR1 (cCMR1); 100 nM icilin (positive control)) is on record?
**A.** sensitive; also recorded: increase in calcium-mediated fluorescence

**Q.** And the “calcium-mediated fluorescence (calcium influx)” value (canine CMR1 (cCMR1); 10 μM icilin)?
**A.** increase in calcium-mediated fluorescence

**Q.** And the “whole-cell current amplitude, rectification and reversal potential” value (cCMR1 channel; icilin (1 μM), voltage ramp protocol, compared with the menthol results)?
**A.** Qualitatively similar results

**Q.** Which “desensitization of menthol-activated cCMR1 current” value (cCMR1 channel; 1.8 mM extracellular Ca^2+, 100 μM menthol, −80 mV) does the source give for `[Ca+2]` [extracellular Ca^2+] here?
**A.** desensitization readily occurred

**Q.** What about the “voltage dependence of inhibition of cCMR1 current amplitude” value (cCMR1 channel; 10 mM extracellular Ca^2+, channel activated by 1 mM menthol) of the same compound?
**A.** strongly inhibited the current amplitude at hyperpolarized potentials

**Q.** And the IC50 (cCMR1 channel; voltage-clamped at −80 mV, channel activated by 1 mM menthol, logistic best fit, read-out: IC50 of inhibition of cCMR1 current amplitude by extracellular Ca^2+)?
**A.** 1600 µM

**Q.** What does the source list for `CC1CCC(C(C)C)C(O)C1` (centres unmarked) [menthol]?
**A.** calcium-mediated fluorescence (calcium influx) (canine CMR1 (cCMR1); 100 μM (−)-menthol): increase in calcium-mediated fluorescence; reversal potential of the menthol-activated current (cCMR1 channel; 100 μM menthol, voltage ramp protocol): ~0 mV; whole-cell current amplitude (cCMR1 channel; 100 μM menthol, voltage ramp −100 mV to +60 mV, 22° C., compared to buffer control): large increase of the whole-cell current amplitude; current activated in the absence of extracellular Ca^2+ (cCMR1 channel; 100 μM menthol, −80 mV, no extracellular Ca^2+): activated a non-desensitizing current

**Q.** `C=CCN=C=S` [mustard oil] was tested. Which “calcium-mediated fluorescence (activation of cCMR1)” value (canine CMR1 (cCMR1); 1 mM mustard oil) did it give?
**A.** activated; also recorded: increase in calcium-mediated fluorescence

Source: patent US7375203B2, “Canine cold- and menthol-sensitive receptor 1” (Janssen Pharmaceutica N.V., priority 2004, dated 2008)
